Literature values, collected in patent publication US7612060B2, “Triazoles and methods of use” (Amgen Inc., priority 2004, dated 2009).
Where no end group is shown, it is not given here.

Conditions: reported

## RPPGFSPFR [BK, Bradykinin]
  half-life of BK in plasma: approximately 17 seconds
